Measurements reported in article PMC7385619, “A triple action CDK4/6-PI3K-BET inhibitor with augmented cancer cell cytotoxicity” (Cell Discovery, 2020).

Columns and labels:
PI3Kδ = molecular target: T1, PI3Kδ (Homo sapiens, UniProt O00329); experiment: In vitro kinase assay, PI3Kδ; type: biochemical; conditions: Fig. 1b; italicized values from the literature (italics not visible)
T1 construct: purchased ThermoFisher Scientific

BRD2 (BD2) = molecular target: T2, BRD2 (BD2) (Homo sapiens, UniProt P25440); experiment: AlphaScreen bromodomain binding assay, BRD2 BD2; conditions: Fig. 1b; italicized values from the literature (italics not visible)
T2 construct: tagged bromodomains and acetylated histone peptides as; purchased Reaction Biology
T2 sequence (P25440 344-453 limits assumed): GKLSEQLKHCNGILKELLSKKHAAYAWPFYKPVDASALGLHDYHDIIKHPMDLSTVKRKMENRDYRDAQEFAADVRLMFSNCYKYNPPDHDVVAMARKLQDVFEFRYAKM

DNA-PK = DNA-PK (Homo sapiens, UniProt P78527); experiment: In vitro kinase assay, DNA-PK; type: biochemical; conditions: Fig. 1b; italicized values from the literature (italics not visible)
PI3Kγ = molecular target: T3, PI3Kγ (Homo sapiens, UniProt P48736); experiment: In vitro kinase assay, PI3Kγ; type: biochemical; conditions: Fig. 1b; italicized values from the literature (italics not visible)
T3 construct: purchased ThermoFisher Scientific

kinome (kinase panel) [1] = molecular target: T4, kinome (kinase panel) (Homo sapiens, UniProt Q9H0K1); experiment: KINOMEscan assay (Eurofins DiscoverX); type: binding; conditions: SIK2; 1000 nM; read-out: Percent Control
T4 construct: purchased Eurofins DiscoverX

kinome (kinase panel) [2] = molecular target: T5, kinome (kinase panel) (Homo sapiens, UniProt O43353); experiment: KINOMEscan assay (Eurofins DiscoverX); type: binding; conditions: RIPK2; 1000 nM; read-out: Percent Control
T5 construct: purchased Eurofins DiscoverX
T5 sequence (O43353 whole entry): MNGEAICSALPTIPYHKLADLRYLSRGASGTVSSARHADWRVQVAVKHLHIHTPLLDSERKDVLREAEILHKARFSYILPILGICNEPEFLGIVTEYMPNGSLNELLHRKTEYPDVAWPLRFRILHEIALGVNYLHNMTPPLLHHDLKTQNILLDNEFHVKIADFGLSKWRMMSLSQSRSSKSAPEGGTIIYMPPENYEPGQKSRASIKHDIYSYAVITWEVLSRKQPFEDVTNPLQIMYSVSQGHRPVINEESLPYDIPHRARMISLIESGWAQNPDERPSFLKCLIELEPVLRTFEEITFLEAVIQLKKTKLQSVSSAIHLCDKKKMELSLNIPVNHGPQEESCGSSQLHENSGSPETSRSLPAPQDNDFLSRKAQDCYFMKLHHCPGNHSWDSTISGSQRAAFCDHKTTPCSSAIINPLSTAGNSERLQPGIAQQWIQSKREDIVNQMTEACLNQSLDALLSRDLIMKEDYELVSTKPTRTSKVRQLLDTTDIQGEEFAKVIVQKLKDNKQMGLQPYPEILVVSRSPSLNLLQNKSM

kinome (kinase panel) [3] = molecular target: T6, kinome (kinase panel) (Homo sapiens, UniProt P41743); experiment: KINOMEscan assay (Eurofins DiscoverX); type: binding; conditions: PRKCI; 1000 nM; read-out: Percent Control
T6 construct: purchased Eurofins DiscoverX

kinome (kinase panel) [4] = molecular target: T7, kinome (kinase panel) (Homo sapiens, UniProt P51955); experiment: KINOMEscan assay (Eurofins DiscoverX); type: binding; conditions: NEK2; 1000 nM; read-out: Percent Control
T7 construct: purchased Eurofins DiscoverX
T7 sequence (P51955 whole entry): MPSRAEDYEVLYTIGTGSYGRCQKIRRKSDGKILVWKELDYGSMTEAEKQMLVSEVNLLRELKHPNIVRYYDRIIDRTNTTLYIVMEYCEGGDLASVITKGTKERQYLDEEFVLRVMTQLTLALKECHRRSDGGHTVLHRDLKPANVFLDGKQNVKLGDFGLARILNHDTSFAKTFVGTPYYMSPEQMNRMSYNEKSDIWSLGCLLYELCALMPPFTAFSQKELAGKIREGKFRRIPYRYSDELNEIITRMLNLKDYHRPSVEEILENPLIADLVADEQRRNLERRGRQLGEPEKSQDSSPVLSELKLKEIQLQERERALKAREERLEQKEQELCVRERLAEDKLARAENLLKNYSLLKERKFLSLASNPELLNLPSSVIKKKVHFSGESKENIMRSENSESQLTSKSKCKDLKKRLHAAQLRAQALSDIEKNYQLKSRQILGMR

kinome (kinase panel) [5] = molecular target: T8, kinome (kinase panel) (Homo sapiens, UniProt Q9NRH2); experiment: KINOMEscan assay (Eurofins DiscoverX); type: binding; conditions: SNRK; 1000 nM; read-out: Percent Control
T8 construct: purchased Eurofins DiscoverX
T8 sequence (Q9NRH2 whole entry): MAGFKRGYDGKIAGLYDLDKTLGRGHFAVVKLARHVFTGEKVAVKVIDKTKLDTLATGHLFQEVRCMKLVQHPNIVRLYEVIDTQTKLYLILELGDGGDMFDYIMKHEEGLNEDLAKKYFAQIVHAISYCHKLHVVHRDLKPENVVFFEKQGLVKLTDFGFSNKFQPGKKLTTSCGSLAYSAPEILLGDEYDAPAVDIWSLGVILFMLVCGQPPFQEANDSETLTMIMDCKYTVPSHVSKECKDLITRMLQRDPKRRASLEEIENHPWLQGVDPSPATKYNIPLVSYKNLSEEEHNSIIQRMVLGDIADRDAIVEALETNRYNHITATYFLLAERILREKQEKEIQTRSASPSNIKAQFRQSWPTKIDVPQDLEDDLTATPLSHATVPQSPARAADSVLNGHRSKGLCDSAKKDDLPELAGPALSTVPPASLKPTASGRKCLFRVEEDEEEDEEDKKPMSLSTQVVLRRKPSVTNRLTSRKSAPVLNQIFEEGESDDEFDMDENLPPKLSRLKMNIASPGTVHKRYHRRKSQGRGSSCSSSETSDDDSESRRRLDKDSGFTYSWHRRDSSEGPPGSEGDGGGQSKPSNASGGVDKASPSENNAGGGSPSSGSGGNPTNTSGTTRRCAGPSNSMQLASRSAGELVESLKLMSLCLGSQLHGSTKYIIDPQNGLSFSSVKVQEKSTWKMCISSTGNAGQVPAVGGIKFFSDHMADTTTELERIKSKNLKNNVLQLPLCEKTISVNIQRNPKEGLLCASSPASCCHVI

kinome (kinase panel) [6] = molecular target: T9, kinome (kinase panel) (Homo sapiens, UniProt Q9UM73, L1196M); experiment: KINOMEscan assay (Eurofins DiscoverX); type: binding; conditions: […]; 1000 nM; read-out: Percent Control
T9 construct: purchased Eurofins DiscoverX

kinome (kinase panel) [7] = molecular target: T10, kinome (kinase panel) (Homo sapiens, UniProt Q9Y2I7); experiment: KINOMEscan assay (Eurofins DiscoverX); type: binding; conditions: PIKFYVE; 1000 nM; read-out: Percent Control
T10 construct: purchased Eurofins DiscoverX

kinome (kinase panel) [8] = molecular target: T11, kinome (kinase panel) (Homo sapiens, UniProt Q6ZN16); experiment: KINOMEscan assay (Eurofins DiscoverX); type: binding; conditions: MAP3K15; 1000 nM; read-out: Percent Control
T11 construct: purchased Eurofins DiscoverX
T11 sequence (Q6ZN16 whole entry): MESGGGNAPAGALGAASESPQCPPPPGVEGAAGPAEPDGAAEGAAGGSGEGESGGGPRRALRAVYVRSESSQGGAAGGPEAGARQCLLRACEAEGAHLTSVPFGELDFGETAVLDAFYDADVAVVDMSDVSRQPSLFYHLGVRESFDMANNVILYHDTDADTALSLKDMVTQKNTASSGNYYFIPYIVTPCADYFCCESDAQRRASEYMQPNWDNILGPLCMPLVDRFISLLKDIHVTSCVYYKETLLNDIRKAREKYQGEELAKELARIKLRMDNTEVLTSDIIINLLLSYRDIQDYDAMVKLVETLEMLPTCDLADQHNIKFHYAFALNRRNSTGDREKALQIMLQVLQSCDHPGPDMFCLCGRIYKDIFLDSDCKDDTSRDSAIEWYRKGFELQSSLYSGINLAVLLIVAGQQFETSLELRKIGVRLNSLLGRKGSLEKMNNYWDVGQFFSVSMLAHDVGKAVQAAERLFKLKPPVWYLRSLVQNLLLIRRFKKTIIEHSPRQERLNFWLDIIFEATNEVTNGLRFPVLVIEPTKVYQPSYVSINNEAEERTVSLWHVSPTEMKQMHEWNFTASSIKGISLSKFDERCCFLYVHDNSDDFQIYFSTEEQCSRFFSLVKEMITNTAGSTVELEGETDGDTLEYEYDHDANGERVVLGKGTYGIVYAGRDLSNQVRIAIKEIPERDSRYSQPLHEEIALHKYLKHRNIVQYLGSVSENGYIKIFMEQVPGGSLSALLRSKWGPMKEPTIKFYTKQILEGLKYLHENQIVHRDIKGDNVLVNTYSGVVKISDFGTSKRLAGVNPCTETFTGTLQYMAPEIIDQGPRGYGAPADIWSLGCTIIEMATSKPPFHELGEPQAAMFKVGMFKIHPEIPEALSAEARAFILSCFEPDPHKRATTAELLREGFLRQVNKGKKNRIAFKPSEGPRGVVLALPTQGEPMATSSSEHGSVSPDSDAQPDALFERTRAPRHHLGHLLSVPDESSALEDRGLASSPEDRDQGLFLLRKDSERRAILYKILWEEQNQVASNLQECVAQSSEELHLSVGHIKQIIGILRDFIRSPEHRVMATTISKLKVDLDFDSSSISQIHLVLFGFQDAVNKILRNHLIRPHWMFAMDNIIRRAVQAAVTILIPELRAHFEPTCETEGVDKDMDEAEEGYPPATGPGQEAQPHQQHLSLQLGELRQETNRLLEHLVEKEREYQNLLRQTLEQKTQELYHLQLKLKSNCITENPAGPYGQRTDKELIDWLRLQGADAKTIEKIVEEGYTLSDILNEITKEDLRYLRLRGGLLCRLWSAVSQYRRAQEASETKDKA

kinome (kinase panel) [9] = molecular target: T12, kinome (kinase panel) (Homo sapiens, UniProt P35590); experiment: KINOMEscan assay (Eurofins DiscoverX); type: binding; conditions: TIE1; 1000 nM; read-out: Percent Control
T12 construct: purchased Eurofins DiscoverX

kinome (kinase panel) [10] = molecular target: T13, kinome (kinase panel) (Homo sapiens, UniProt Q09013); experiment: KINOMEscan assay (Eurofins DiscoverX); type: binding; conditions: DMPK; 1000 nM; read-out: Percent Control
T13 construct: purchased Eurofins DiscoverX
T13 sequence (Q09013 whole entry): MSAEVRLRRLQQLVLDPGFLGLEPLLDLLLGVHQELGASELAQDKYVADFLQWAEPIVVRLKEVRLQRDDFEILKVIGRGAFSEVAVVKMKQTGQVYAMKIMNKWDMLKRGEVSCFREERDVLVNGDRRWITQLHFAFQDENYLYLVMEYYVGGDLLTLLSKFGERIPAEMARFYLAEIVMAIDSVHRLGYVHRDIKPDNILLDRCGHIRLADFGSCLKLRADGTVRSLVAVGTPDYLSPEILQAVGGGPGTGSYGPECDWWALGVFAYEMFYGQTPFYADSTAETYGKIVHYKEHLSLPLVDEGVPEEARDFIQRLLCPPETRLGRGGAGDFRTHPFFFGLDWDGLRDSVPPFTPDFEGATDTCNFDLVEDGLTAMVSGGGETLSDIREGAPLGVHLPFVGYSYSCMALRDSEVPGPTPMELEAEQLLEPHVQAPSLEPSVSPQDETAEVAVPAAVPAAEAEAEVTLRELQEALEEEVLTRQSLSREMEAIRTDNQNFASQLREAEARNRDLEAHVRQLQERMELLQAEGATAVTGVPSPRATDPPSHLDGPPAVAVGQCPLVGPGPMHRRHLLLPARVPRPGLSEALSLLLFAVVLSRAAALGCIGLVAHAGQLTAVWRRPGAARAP

kinome (kinase panel) [11] = molecular target: T14, kinome (kinase panel) (Homo sapiens, UniProt Q9H4A3); experiment: KINOMEscan assay (Eurofins DiscoverX); type: binding; conditions: WNK1; 1000 nM; read-out: Percent Control
T14 construct: purchased Eurofins DiscoverX

kinome (kinase panel) [12] = molecular target: T15, kinome (kinase panel) (Homo sapiens, UniProt O43283); experiment: KINOMEscan assay (Eurofins DiscoverX); type: binding; conditions: LZK (Entrez MAP3K13); 1000 nM; read-out: Percent Control
T15 construct: purchased Eurofins DiscoverX
T15 sequence (O43283 whole entry): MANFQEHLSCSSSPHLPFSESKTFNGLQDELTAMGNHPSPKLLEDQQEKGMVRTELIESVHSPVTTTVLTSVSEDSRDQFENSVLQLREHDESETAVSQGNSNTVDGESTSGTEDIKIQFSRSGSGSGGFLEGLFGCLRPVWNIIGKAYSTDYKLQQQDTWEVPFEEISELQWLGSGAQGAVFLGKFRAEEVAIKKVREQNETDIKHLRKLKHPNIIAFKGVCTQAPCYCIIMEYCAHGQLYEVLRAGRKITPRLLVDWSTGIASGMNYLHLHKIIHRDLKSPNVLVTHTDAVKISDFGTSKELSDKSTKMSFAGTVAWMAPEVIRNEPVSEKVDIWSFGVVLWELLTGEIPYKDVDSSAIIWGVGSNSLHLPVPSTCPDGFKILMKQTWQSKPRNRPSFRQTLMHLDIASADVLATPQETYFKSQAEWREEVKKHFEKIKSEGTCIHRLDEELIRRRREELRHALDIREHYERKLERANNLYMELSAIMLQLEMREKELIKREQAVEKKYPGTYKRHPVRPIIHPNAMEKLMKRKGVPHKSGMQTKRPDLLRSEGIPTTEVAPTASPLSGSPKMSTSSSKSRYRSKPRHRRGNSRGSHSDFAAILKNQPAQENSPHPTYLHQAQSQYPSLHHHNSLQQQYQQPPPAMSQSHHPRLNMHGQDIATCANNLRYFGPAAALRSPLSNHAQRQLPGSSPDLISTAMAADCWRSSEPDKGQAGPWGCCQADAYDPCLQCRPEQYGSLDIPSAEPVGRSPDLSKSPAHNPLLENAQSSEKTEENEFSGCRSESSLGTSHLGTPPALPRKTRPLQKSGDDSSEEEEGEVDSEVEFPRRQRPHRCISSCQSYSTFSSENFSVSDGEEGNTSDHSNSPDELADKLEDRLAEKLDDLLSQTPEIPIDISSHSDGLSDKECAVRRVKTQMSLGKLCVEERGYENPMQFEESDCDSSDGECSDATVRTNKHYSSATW

kinome (kinase panel) [13] = molecular target: T16, kinome (kinase panel) (Homo sapiens, UniProt P53671); experiment: KINOMEscan assay (Eurofins DiscoverX); type: binding; conditions: LIMK2; 1000 nM; read-out: Percent Control
T16 construct: purchased Eurofins DiscoverX

CN(C)C(=O)c1cc2cnc(Nc3ccc(-c4csc5c(=O)cc(N6CCOCC6)oc45)cc3)nc2n1C1CCCC1 [SRX3177] showed an IC50 (PI3Kδ) of 83 nM, an IC50 (BRD2 (BD2)) of 994 nM and an IC50 (DNA-PK) of 21 nM. The IC50 (PI3Kγ) was 3.18 µM, the remaining binding at 1 µM (kinome (kinase panel) [1]) was 58% and the remaining binding at 1 µM (kinome (kinase panel) [2]) was 93%. It also gave a remaining binding at 1 µM (kinome (kinase panel) [3]) of 89%, a remaining binding at 1 µM (kinome (kinase panel) [4]) of 90% and a remaining binding at 1 µM (kinome (kinase panel) [5]) of 82%. The remaining binding at 1 µM (kinome (kinase panel) [6]) was 84%, the remaining binding at 1 µM (kinome (kinase panel) [7]) was 2.4% and the remaining binding at 1 µM (kinome (kinase panel) [8]) was 100%. The remaining binding at 1 µM (kinome (kinase panel) [9]) was 77%, the remaining binding at 1 µM (kinome (kinase panel) [10]) was 100% and the remaining binding at 1 µM (kinome (kinase panel) [11]) was 93%. It also gave a remaining binding at 1 µM (kinome (kinase panel) [12]) of 48% and a remaining binding at 1 µM (kinome (kinase panel) [13]) of 92%.
